Results taken from patent US12453779B2, “Chemoselective thiol-conjugation with alkene or alkyne-phosphonothiolates and -phosphonates” (FORSCHUNGSVERBUND BERLIN E.V., priority 2018, dated 2025).

System: CD30-overexpressing cell line Karpas 299
Assay: Cell based antiproliferation (resazurin) assay, Karpas 299
Details: Karpas 299, 96 hours of treatment, Brentuximab-NA3 DAR=3.15

Brentuximab: CD30-addressing antibody
growth inhibition (cell viability): does not show growth inhibition
